Source: US20210239681A1, “COMPOSITIONS AND METHODS FOR […] OF […]-BASED IMMUNOTHERAPEUTICS” (ADVAXIS, INC., priority 2018, published 2021)

What was measured:
Type in all cases: cell-based, human
[1] = tested on: HPV E7 Specific T cells; test: THP-1/T cell co-culture: MOI, infection time and cell ratio titration; parameters: IFNγ / IL-1β / IL-6 / TNF-α: unit not given here; details: for IFNγ production / IFNγ / IL-1β / IL-6 / TNF-α: THP-1 + peptide; for IFNγ production: THP-1 Cells 40000
Method: A separate experiment was performed with a range of MOI and 5 hours infection time. In this experiment only IFNγ was measured since this cytokine is only made by the T cells, not THP-1 cells. While there was still recognition of the ADXS11-001 infected THP-1 cells it was not as great as that observed in overnight cultures when compared to the peptide incubated THP-1.
The MOI used for infection was varied over a range of bacterial concentration. In Table 12 the effect of the different MOI on cytokine secretion by THP-1 is shown. […] Secretion of IFNγ by the T cells was related to the MOI with higher MOI stimulating higher IFNγ production, though there was significant IFNγ at all MOI.
Cell number and ratio of T cells to THP-1 cells was also analyzed. The above experiments all used 20,000 T cells and 20,000 THP-1 cells per well (1:1 ratio). We initially investigated the effect of cell number using THP-1 incubated with peptide. The number of both T cells and THP-1 were varied. THP-1 cells ranging from 40,000 cells to 5000 cells per well were incubated with T cells ranging from 20,000 to 5000 cells per well. Effect of varying THP-1 to T cell ratio on IFNγ production was investigated at both higher (1 μg/ml) and lower (0.1 μg/ml) peptide concentrations.
We investigated if this effect is reproducible in infected THP cells. Varying concentration of infected THP-1 cells ranging from 40000 to 10000 cells per well were incubated with T cells ranging from 40000 to 10000 cells per well to identify the optimum cell ratio for the assay. The effect of cell ratio on IFNγ production is similar to the effect observed with peptide incubation.
(§1) Titration studies with different multiplicity of infection (MOI). THP cells were infected for 2 hours with 3 different dilutions (MOI) of Listeria. Infected or uninfected THP cells were then cultured overnight for 24 hours before co-culturing the T cells. Cells were co-cultured overnight before cytokine analysis.

[2] = tested on: THP-1 cells; test: Intracellular cytokine staining of THP-1 cells; details: FIGS. 3A-3C, FIG. 10
Method: (§2) To identify cytokines that can be used to measure potency of a Listeria-based therapeutic the following tests were performed. Intracellular cytokine staining was used to detect T cells specificity. THP-1 were incubated with peptide overnight, mixed with T cells from above and centrifuged. The collected cells were then co-cultured at 37° C. for 1 hour. Brefeldin A was then added and the cells were co-cultured for another 4 hours. Brefeldin A inhibits secretion and permits analysis by flow cytometry. Cell were then stained to identify dead cells and CD8+ cells. The cell were then fixed and stained for IFNγ (using fix and permeabilization buffer from eBioscience/Invitrogen).
Intracellular cytokine staining of THP-1 cells.

[3] = tested on: THP-1 cells; test: Cytokine production by THP-1 in the absence of T cells; details: Without gentamicin; Listeria MOI of 10; optical density
[4] = tested on: T cells; test: Intracellular cytokine staining of T cells; details: Brefeldin A, FIG. 9
Method: as §2

[5] = tested on: THP-1 cells; test: Cytokine production by THP-1 in the absence of T cells; parameters: IL-6: unit not given here
Method: Analysis Kits and Reagents: Analysis of cytokine concentrations in culture medium used the U-plex assay kits from Meso Scale Discovery. Expression of T cell receptors specific for E7 peptide bound to HLA-A*02:01 was detected using HLA-A*02:01/peptide tetramers from MBL International (Woburn, Mass.).
Infection of THP-1: The THP-1 cell line was infected with either ADXS11-001 or XFL7 by incubating 10^6 cells with dilutions of bacteria in a 1 mL volume of RPMI 1640 10% FBS. […] After incubation with gentamicin the cells were washed again and resuspended to the desired cell concentration.
T cell cytokine expression analysis. An initial experiment using THP-1 as antigen presenting cells was performed using a T cell culture containing 6% E7 (11-20) specific T cells based upon staining with HLA-A*02:01/peptide tetramer. THP-1 cells were infected as described using two different concentrations of bacteria and then co-cultured with the T cells. Controls included uninfected THP-1 cells and THP-1 cells incubated with (exposed to) either the 9mer or 10mer peptide for one hour. After an overnight co-culture, medium was collected for analysis of cytokines.
To further explore the importance of the overnight incubation of infected THP-1, THP-1 cells infected overnight were compared to THP-1 cells infected for 2 hours. T cells specific for 9mer and 10mer peptides were co-cultured with each of the THP-1 cells and with uninfected or peptide exposed THP-1. As before, medium was collected after an overnight co-culture and cytokines were measured.
as §1

[6] = Cytokine secretion by THP-1 after infection or + E7 peptide (No T cells), mean of triplicate
[7] = THP-1 + peptide, THP-1 cell alone
[8] = THP-1 + peptide, THP-1 cells only
[9] = THP-1 incubated with peptide, absence of T cells

Sequence: YMLDLQPETT [10mer]
- IFNγ production ([1]; T Cells 10000): 8078
- IFNγ production ([1]; T Cells 20000): 17968
- IFNγ production ([1]; T Cells 40000): 34161
- IFNγ ([1]; THP/T cell co-culture): 33835
- IL-1β ([1]; THP/T cell co-culture): 3
- IL-6 ([1]; THP/T cell co-culture): 23
- TNF-α ([1]; THP/T cell co-culture): 697
- IFNγ ([1]; co-culture with T cells): 65099
- IL-1β ([1]; co-culture with T cells): 6
- IL-6 ([1]; co-culture with T cells): 1243
- TNF-α ([1]; co-culture with T cells): 2309
- IFNγ Mean ([1]; THP-1 incubated with peptide, mean of triplicate): 41305 pg/mL
- Basal IFNγ in THP-1 cells after stimulation with peptide [2]: not detectable
- IFNγ production, THP-1 alone [3]: 0.062
- IFNγ in T cells after stimulation with peptide [4]: higher levels of IFNγ
- IFNγ production, THP-1 alone ([5]; 50 μg/mL gentamicin, Listeria MOI of 10, optical density): 0.058
- IFNγ [5, 6]: 36.7 pg/mL
- IL-1β [5, 6]: 0.2 pg/mL
- IL-2 [5, 6]: 4.6 pg/mL
- IL-4 [5, 6]: 0.6 pg/mL
- IL-5 [5, 6]: <LLOD
- IL-8 [5, 6]: 11.8 pg/mL
- IL-10 [5, 6]: 0.4 pg/mL
- IL-12p70 [5, 6]: 0.3 pg/mL
- IL-13 [5, 6]: <LLOD
- TNF-α [5, 6]: 15.5 pg/mL
- IFNγ [5, 7]: 9
- IL-1β [5, 7]: 0
- IL-6 [5, 7]: <LLOD
- TNF-α [5, 7]: <LLOD
- IFNγ [5, 8]: 1
- IL-1β [5, 8]: 0
- IL-6 [5, 8]: 6
- TNF-α [5, 8]: 104
- IFNγ ([5]; THP-1 alone, peptide exposed): <LLOD
- IL-1β ([5]; THP-1 alone, peptide exposed): <LLOD
- IL-2 ([5]; THP-1 alone, peptide exposed): <LLOD
- IL-5 ([5]; THP-1 alone, peptide exposed): <LLOD
- IL-6 ([5]; THP-1 alone, peptide exposed): <LLOD
- IL-10 ([5]; THP-1 alone, peptide exposed): <LLOD
- IL-12p70 ([5]; THP-1 alone, peptide exposed): <LLOD
- IL-13 ([5]; THP-1 alone, peptide exposed): <LLOD
- TNF-α ([5]; THP-1 alone, peptide exposed): 0
- IFNγ [5, 9]: <LLOD
- IL-1β [5, 9]: 0.1
- IL-2 [5, 9]: <LLOD
- IL-4 [5, 9]: <LLOD
- IL-6 [5, 9]: <LLOD
- IL-8 [5, 9]: 8.1
- IL-10 [5, 9]: <LLOD
- IL-12p70 [5, 9]: <LLOD
- IL-13 [5, 9]: <LLOD
- TNF-α [5, 9]: <LLOD
